Experiment [1] has as its target T1, Adenosine receptor A3 (Homo sapiens, UniProt P0DMS8).
T1 sequence (P0DMS8 whole entry): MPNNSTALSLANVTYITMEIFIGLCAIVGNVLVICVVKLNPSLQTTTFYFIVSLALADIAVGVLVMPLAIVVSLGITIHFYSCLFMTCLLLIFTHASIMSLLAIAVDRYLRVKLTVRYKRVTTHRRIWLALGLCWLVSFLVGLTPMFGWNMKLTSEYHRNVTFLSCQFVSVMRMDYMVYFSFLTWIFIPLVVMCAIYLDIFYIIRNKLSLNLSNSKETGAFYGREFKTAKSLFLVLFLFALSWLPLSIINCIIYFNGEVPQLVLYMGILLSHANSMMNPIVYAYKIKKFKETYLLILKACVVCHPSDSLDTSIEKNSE

The target of experiment [2] is T2, Amine oxidase [flavin-containing] A (Homo sapiens, UniProt P21397).
T2 sequence (P21397 whole entry): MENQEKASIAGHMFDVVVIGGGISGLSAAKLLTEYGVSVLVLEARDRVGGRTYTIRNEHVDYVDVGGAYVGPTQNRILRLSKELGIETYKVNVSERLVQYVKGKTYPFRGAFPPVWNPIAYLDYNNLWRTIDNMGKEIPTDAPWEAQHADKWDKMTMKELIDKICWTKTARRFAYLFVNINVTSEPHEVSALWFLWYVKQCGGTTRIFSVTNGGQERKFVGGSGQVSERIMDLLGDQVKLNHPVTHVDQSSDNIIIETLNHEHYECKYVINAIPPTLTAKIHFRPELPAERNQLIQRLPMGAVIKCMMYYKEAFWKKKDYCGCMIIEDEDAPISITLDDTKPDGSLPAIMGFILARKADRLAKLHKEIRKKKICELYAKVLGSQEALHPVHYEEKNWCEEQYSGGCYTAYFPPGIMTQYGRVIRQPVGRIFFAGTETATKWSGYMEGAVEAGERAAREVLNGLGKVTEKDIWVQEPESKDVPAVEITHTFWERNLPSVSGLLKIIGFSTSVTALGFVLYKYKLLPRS
Type of experiment: functional.

Experiment [3] addresses T3, Progesterone receptor (Homo sapiens, UniProt P06401).
T3 sequence (P06401 whole entry): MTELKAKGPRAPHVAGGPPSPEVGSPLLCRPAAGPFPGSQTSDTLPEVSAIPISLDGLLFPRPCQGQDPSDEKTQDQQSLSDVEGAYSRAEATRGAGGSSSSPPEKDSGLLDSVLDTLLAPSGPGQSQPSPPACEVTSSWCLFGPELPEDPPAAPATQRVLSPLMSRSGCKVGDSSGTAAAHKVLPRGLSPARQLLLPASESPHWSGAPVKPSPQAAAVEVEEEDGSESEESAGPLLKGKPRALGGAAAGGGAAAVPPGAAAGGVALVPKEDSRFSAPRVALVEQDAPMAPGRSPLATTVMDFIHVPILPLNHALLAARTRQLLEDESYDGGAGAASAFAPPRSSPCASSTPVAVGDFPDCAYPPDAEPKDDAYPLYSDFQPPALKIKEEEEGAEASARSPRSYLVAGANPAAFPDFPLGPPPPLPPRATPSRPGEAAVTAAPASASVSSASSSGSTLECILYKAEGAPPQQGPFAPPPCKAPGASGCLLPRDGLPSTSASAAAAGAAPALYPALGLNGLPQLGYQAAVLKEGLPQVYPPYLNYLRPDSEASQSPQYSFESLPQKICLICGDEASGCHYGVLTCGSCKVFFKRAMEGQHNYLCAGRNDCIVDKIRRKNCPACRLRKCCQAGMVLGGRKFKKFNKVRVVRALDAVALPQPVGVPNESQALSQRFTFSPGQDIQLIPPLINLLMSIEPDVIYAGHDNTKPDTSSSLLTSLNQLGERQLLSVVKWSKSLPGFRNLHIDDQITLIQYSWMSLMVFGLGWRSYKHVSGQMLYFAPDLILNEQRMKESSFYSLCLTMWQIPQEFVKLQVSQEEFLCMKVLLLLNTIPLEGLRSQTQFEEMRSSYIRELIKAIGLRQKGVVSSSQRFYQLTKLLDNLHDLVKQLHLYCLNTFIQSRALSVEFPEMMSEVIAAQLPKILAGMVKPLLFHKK
Type of experiment: functional.

Experiment [4] addresses T4, Estrogen receptor (Homo sapiens, UniProt P03372).
T4 sequence (P03372 whole entry): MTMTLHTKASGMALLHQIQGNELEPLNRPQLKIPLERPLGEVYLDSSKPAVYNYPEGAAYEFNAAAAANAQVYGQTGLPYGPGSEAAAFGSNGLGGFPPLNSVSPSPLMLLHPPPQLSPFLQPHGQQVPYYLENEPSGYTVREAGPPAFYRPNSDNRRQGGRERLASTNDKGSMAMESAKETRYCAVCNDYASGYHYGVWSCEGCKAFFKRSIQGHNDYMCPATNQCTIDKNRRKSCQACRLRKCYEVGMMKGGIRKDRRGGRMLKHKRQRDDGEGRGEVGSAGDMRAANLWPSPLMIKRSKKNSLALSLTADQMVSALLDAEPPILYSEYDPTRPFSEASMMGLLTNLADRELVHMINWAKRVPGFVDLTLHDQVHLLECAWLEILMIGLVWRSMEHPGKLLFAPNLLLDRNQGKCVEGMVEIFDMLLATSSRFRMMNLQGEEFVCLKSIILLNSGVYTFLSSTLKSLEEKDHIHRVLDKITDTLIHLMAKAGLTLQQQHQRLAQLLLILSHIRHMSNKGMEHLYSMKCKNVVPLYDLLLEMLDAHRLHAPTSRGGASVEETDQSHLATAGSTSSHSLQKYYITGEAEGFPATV

Experiment [5] concerns the target T5, Prostaglandin G/H synthase 1 (Rattus norvegicus, UniProt Q63921).
T5 sequence (Q63921 whole entry): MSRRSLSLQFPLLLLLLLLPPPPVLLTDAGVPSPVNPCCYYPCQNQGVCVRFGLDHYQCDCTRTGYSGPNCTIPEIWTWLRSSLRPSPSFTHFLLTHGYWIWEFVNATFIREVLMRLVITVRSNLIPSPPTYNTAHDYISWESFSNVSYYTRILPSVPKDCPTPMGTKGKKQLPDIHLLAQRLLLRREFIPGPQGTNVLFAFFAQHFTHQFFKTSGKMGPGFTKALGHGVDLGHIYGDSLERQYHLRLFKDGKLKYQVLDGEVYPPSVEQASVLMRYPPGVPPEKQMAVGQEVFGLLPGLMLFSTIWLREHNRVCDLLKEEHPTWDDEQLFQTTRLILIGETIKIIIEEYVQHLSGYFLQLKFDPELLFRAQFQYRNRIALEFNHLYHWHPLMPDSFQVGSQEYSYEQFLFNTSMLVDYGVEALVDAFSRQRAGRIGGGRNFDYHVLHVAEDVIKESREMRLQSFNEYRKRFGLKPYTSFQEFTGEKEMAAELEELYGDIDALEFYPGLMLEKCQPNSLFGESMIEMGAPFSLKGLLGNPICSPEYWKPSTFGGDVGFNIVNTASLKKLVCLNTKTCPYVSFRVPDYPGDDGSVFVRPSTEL
It counts as functional.

Experiment [6] addresses Sodium-dependent noradrenaline transporter (Homo sapiens, UniProt P23975).

Molecules are shown by their SMILES.
Also: assay procedure not described here.

Sequence of Sodium-dependent noradrenaline transporter (P23975 whole entry): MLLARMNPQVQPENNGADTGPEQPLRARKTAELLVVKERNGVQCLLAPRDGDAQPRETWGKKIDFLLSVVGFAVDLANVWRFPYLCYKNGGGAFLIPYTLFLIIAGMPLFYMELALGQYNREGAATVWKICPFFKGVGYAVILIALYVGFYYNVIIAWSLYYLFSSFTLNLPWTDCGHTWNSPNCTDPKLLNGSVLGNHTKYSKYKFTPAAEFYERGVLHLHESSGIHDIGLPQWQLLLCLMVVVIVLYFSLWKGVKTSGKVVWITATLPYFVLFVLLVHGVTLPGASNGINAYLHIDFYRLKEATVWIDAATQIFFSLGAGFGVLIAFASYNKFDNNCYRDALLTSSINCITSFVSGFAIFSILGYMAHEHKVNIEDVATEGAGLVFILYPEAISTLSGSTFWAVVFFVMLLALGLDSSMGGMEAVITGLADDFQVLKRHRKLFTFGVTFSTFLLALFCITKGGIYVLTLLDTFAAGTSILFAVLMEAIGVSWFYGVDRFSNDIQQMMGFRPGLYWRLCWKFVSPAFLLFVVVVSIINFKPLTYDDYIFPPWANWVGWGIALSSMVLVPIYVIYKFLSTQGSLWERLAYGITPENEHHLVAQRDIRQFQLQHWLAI

Broadly, the AC50 is the midpoint of the concentration-response curve, whichever way the signal moves. Turning to `C[N+](C)(C)CCOP(=O)([O-])OC[C@H](O)CO`, the AC50 in experiment [1], in experiment [2], in experiment [3], in experiment [4] and in experiment [5] was over 30 µM each time.
For the compound `CN(C)Cc1nnc2n1-c1ccc(Cl)cc1C(c1ccccc1)=NC2` [ADINAZOLAM], the AC50 in experiment [1], in experiment [2], in experiment [3], in experiment [4] and in experiment [5] was over 10 µM in each case.
Take `CN(C)C/C=C/C(=O)Nc1cc2c(Nc3ccc(F)c(Cl)c3)ncnc2cc1O[C@H]1CCOC1` [AFATINIB]: the AC50 in experiment [1], in experiment [2], in experiment [3], in experiment [4] and in experiment [5] was over 30 µM throughout.
For the compound `CC1=C(C(=O)OC(C)C)C(c2cccc([N+](=O)[O-])c2)C(C(=O)OC2CN(C(c3ccccc3)c3ccccc3)C2)=C(N)N1` (configuration not stated) [AZELNIDIPINE], the AC50 in experiment [1] was 2.2 µM; in experiment [2], over 30 µM; in experiment [3], over 30 µM; in experiment [4] it was over 3 µM; in experiment [5] it was 16 µM.
With `CC(C)(Oc1ccc(CCNC(=O)c2ccc(Cl)cc2)cc1)C(=O)O` [BEZAFIBRATE], the AC50 in experiment [1], in experiment [2], in experiment [3], in experiment [4] and in experiment [5] was over 10 µM throughout.
Take `CC(O)(CS(=O)(=O)c1ccc(F)cc1)C(=O)Nc1ccc(C#N)c(C(F)(F)F)c1` (configuration not stated) [BICALUTAMIDE]: the AC50 was over 30 µM in experiment [1]; over 10 µM in experiment [2]; over 30 µM in experiment [3]; over 30 µM in experiment [6]; over 30 µM in experiment [5].
As to `O=C(O)COCCN1CCN(C(c2ccccc2)c2ccc(Cl)cc2)CC1` (configuration not stated) [CETIRIZINE], the concentration at half-maximal activity (AC50) in experiment [1] is over 30 µM; in experiment [2] it was over 10 µM; in experiment [4], over 30 µM.
Regarding `NC[C@H]1CC[C@H](C(=O)Oc2ccc(CCC(=O)O)cc2)CC1` [CETRAXATE], the AC50 in experiment [2] and in experiment [6] was over 30 µM throughout.
As for `CC(=O)O[C@]1(C(C)=O)CC[C@H]2[C@@H]3C=C(Cl)C4=CC(=O)[C@@H]5C[C@@H]5[C@]4(C)[C@H]3CC[C@@]21C` [CYPROTERONE ACETATE], the AC50 in experiment [1] is over 30 µM; in experiment [2], over 10 µM; in experiment [6], over 30 µM; in experiment [5], over 30 µM.
Regarding `C/C=C(/C(=C/C)c1ccc(O)cc1)c1ccc(O)cc1` [DIENESTROL], the AC50 was 7.3 µM in experiment [1]; over 10 µM in experiment [2]; over 30 µM in experiment [3]; 0.0035 µM in experiment [4]; over 30 µM in experiment [5].
Turning to `CN[C@]1(c2ccccc2Cl)CCCCC1=O` [ESKETAMINE], the AC50 in experiment [1], in experiment [2], in experiment [3], in experiment [4] and in experiment [5] was over 30 µM each time.
On to `C[C@@H]1C[C@H]2[C@@H]3C[C@H](F)C4=CC(=O)C=C[C@]4(C)[C@@]3(F)[C@@H](O)C[C@]2(C)[C@@]1(OC(=O)c1ccco1)C(=O)SCF` [FLUTICASONE FUROATE], for which the AC50 in experiment [1] is over 10 µM; in experiment [2], over 10 µM; in experiment [6], over 30 µM; in experiment [5], over 10 µM.
Turning to `CCC[C@@H]1C[C@@H](C(=O)N[C@@H]([C@H]2O[C@H](SC)[C@H](O)[C@@H](O)[C@H]2O)[C@@H](C)O)N(C)C1` [LINCOMYCIN], the concentration at half-maximal activity (AC50) in experiment [1], in experiment [2], in experiment [4] and in experiment [5] was over 10 µM throughout.
In the case of `CN(Cc1cnc2nc(N)nc(N)c2n1)c1ccc(C(=O)N[C@@H](CCC(=O)O)C(=O)O)cc1` [METHOTREXATE], the AC50 is over 30 µM in experiment [1], over 10 µM in experiment [2], over 30 µM in experiment [4] and over 30 µM in experiment [5].
As to `CN[C@@H](C)[C@@H](O)c1ccccc1` [PSEUDOEPHEDRINE], the AC50 in experiment [1] was over 30 µM; in experiment [2], over 10 µM; in experiment [4], over 30 µM; in experiment [5], over 30 µM.
In the case of `COC(=O)[C@H]1[C@H]2C[C@@H]3c4[nH]c5cc(OC)ccc5c4CCN3C[C@H]2C[C@@H](OC(=O)c2cc(OC)c(OC)c(OC)c2)[C@@H]1OC` [RESERPINE], the AC50 in experiment [1] is 26.5 µM; in experiment [2], over 30 µM; in experiment [3] it was over 10 µM; in experiment [6], 13.6 µM; in experiment [5], 18.8 µM.
In experiment [6], `Clc1ccc(C(Cn2ccnc2)OCc2csc3c(Cl)cccc23)c(Cl)c1` (configuration not stated) [SERTACONAZOLE] gave an AC50 of 3.3 µM.
The same measure, in the same setting: to `CC(OCCN1CCCCCC1)(c1ccccc1)c1ccc(Cl)cc1` (configuration not stated) [SETASTINE] belongs 5.82 µM.
The compound `COc1cc(C)c2c(Oc3cccc(C(F)(F)F)c3)c(OC)cc(NC(C)CCCN)c2n1` (configuration not stated) [TAFENOQUINE] gave a concentration at half-maximal activity (AC50) in experiment [6] of 2.26 µM.
On to `CCCSc1nc(N[C@@H]2C[C@H]2c2ccc(F)c(F)c2)c2nnn([C@@H]3C[C@H](OCCO)[C@@H](O)[C@H]3O)c2n1` [TICAGRELOR], for which, in experiment [6], the activity was half-maximal at 14.8 µM (AC50).
With `c1ccc2c(SC3=NCCN3)c[nH]c2c1` [TINAZOLINE], in experiment [6], the activity was half-maximal at 5.56 µM (AC50).
On the same count and under the same terms, to `Cc1ccc(C(=O)C(C)CN2CCCCC2)cc1` (configuration not stated) [TOLPERISONE] belongs over 30 µM; to `COc1ccc2c(C(=S)N(C)CC(=O)O)cccc2c1C(F)(F)F` [TOLRESTAT], over 30 µM.

(Values after ChEMBL document CHEMBL5291721, “A preclinical secondary pharmacology resource illuminates target-adverse drug reaction associations of marketed drugs” (Nat Commun, 2023).)
